Source: the supplement of paper PMC12317010
Where a name gives a salt, the structure may show the parent alone.

Assay: collision cross section in nitrogen (drift tube, single-field); higher = larger gas-phase ion size
[1] = ion type: [M+H], ion source: APCI, ion mode: Positive
[2] = ion type: [M-H], ion source: ESI, ion mode: Negative
[3] = ion type: [M+H], ion source: ESI, ion mode: Positive
[4] = ion type: [M+Na], ion source: ESI, ion mode: Positive
[5] = ion type: [M+], ion source: APCI, ion mode: Positive
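Also: chemical standards at 10 µM analysed by drift tube IMS-QTOF MS in about 3.95 torr nitrogen, mean of duplicate injections differing ≤1%, mass error below 10 ppm.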

In the case of `c1ccc2c(c1)CCN2` [Indoline], the “collision cross section in nitrogen” value [1] is reported as 120.8 Å².

With `CCOc1cc(Oc2ccc(C(F)(F)F)cc2Cl)ccc1[N+](=O)[O-]` [Oxyfluorfen] the “collision cross section in nitrogen” value [2] was 172.1 Å².

For `Nc1cc(C(=O)O)ccc1Cl` [3-Amino-4-chlorobenzoic acid], the “collision cross section in nitrogen” value [2] was 135.4 Å².

For `O=C(O)c1cc(C(=O)O)cc(S(=O)(=O)O)c1` [Lithium 3-carboxy-5-sulfobenzoate], the “collision cross section in nitrogen” value [2] was 147.3 Å².

For `Nc1cccnc1N` [2,3-Diaminopyridine], the “collision cross section in nitrogen” value [3] was 118.5 Å².

In the case of `O=c1cc(-c2ccccc2)oc2cc(O)cc(O)c12` [Chrysin], the “collision cross section in nitrogen” value [1] is reported as 155.4 Å², the “collision cross section in nitrogen” value [3] is reported as 154.8 Å² and the “collision cross section in nitrogen” value [2] is reported as 157.7 Å².

In the case of `Cc1ccc(C2OC[C@@H]3OC(c4ccc(C)cc4)O[C@H]([C@H](O)CO)[C@@H]3O2)cc1` (some centres undefined) [Di-p-methylbenzylidenesorbitol], the “collision cross section in nitrogen” value [1] is reported as 191.5 Å², the “collision cross section in nitrogen” value [3] is reported as 193.1 Å² and the “collision cross section in nitrogen” value [4] is reported as 194.4 Å².

With `C=CCOC(Cn1ccnc1)c1ccc(Cl)cc1Cl` (centres undefined) [Imazalil] the “collision cross section in nitrogen” value [1] was 167.9 Å² and the “collision cross section in nitrogen” value [3] was 167.9 Å².

In the case of `CCN(CC)c1c([N+](=O)[O-])cc(C(F)(F)F)c(N)c1[N+](=O)[O-]` [Dinitramine], the “collision cross section in nitrogen” value [2] is reported as 159.7 Å².

With `CCCCC(CC)COC(=O)CCCCC(=O)OCc1ccccc1` (centres undefined) [Benzyloctyl adipate] the “collision cross section in nitrogen” value [4] was 191.9 Å².

In the case of `Oc1cc2ccccc2c2ccccc12` [9-Phenanthrol], the “collision cross section in nitrogen” value [2] is reported as 140.7 Å².

With `CCc1nn(C)c(C(=O)NCc2ccc(C(C)(C)C)cc2)c1Cl` [Tebufenpyrad] the “collision cross section in nitrogen” value [1] was 193.9 Å², the “collision cross section in nitrogen” value [3] was 193 Å² and the “collision cross section in nitrogen” value [4] was 193.2 Å². The “collision cross section in nitrogen” value [2] was 194 Å².

For `CC(C)(c1ccccc1)c1cc(-n2nc3ccccc3n2)c(O)c(C(C)(C)c2ccccc2)c1`, the “collision cross section in nitrogen” value [1] was 218 Å², the “collision cross section in nitrogen” value [3] was 218 Å² and the “collision cross section in nitrogen” value [4] was 223.4 Å². For the same compound, the “collision cross section in nitrogen” value [2] was 222.1 Å².

For `Cc1ccc2[nH]nnc2c1` [5-Methyl-1H-benzotriazole], the “collision cross section in nitrogen” value [1] was 125.1 Å², the “collision cross section in nitrogen” value [3] was 124.8 Å² and the “collision cross section in nitrogen” value [2] was 125.2 Å².

In the case of `O=C(c1ccccc1)c1ccc(Cl)cc1` [4-Chlorobenzophenone], the “collision cross section in nitrogen” value [4] is reported as 151.1 Å².

For `CCCCC(CC)COC(=O)c1ccc(C(=O)OCC(CC)CCCC)c(C(=O)OCC(CC)CCCC)c1` (centres undefined) [Tris(2-ethylhexyl) trimellitate], the “collision cross section in nitrogen” value [3] was 256.5 Å² and the “collision cross section in nitrogen” value [4] was 264.6 Å².

For `O=C(c1ccccc1)c1ccccc1O` [2-Hydroxybenzophenone], the “collision cross section in nitrogen” value [2] was 143.4 Å².

In the case of `Nc1cccc2ccccc12` [1-Naphthylamine], the “collision cross section in nitrogen” value [3] is reported as 127.6 Å² and the “collision cross section in nitrogen” value [5] is reported as 125 Å².

In the case of `CC(=O)Nc1ccc(C)c(Cl)c1` [N-(3-Chloro-4-methylphenyl)acetamide], the “collision cross section in nitrogen” value [2] is reported as 138.2 Å².

In the case of `CC(=O)CCc1ccc(OC(C)=O)cc1` [4-[4-(Acetyloxy)phenyl]-2-butanone], the “collision cross section in nitrogen” value [4] is reported as 146.4 Å².

For `CCCCCCCCCCCCCCCC(=O)OC[C@H](O)[C@H]1OC(=O)C(O)=C1O` [Ascorbyl palmitate], the “collision cross section in nitrogen” value [2] was 202.4 Å².

In the case of `CCCCNC1CC(C)(C)NC(C)(C)C1` [N-Butyl-2,2,6,6-tetramethylpiperidin-4-amine], the “collision cross section in nitrogen” value [1] is reported as 153.3 Å² and the “collision cross section in nitrogen” value [3] is reported as 154 Å².

With `CC1(C)CN=C(NN=C(C=Cc2ccc(C(F)(F)F)cc2)C=Cc2ccc(C(F)(F)F)cc2)NC1` [Hydramethylnon] the “collision cross section in nitrogen” value [1] was 239.4 Å², the “collision cross section in nitrogen” value [3] was 240.6 Å² and the “collision cross section in nitrogen” value [4] was 250.1 Å². For the same compound, the “collision cross section in nitrogen” value [5] was 226.3 Å² and the “collision cross section in nitrogen” value [2] was 234.7 Å².

With `COc1ccc(-c2coc3cc(O)ccc3c2=O)cc1` [Formononetin] the “collision cross section in nitrogen” value [1] was 159.8 Å², the “collision cross section in nitrogen” value [3] was 160.3 Å² and the “collision cross section in nitrogen” value [4] was 171.4 Å². For the same compound, the “collision cross section in nitrogen” value [5] was 156.9 Å².

With `CCOc1ccc(NC(C)=O)cc1` [Phenacetin] the “collision cross section in nitrogen” value [1] was 141.4 Å² and the “collision cross section in nitrogen” value [3] was 141.5 Å².

For `Oc1c(O)c(Cl)c(Cl)c(Cl)c1Cl` [Tetrachlorocatechol], the “collision cross section in nitrogen” value [2] was 135.1 Å².

For `O=S(=O)(O)c1cc(S(=O)(=O)O)c2c(N=Nc3ccccc3)c(O)ccc2c1` [C.I. Acid Orange 10], the “collision cross section in nitrogen” value [2] was 192.5 Å².

With `NC(=O)c1ccccc1O` [Salicylamide] the “collision cross section in nitrogen” value [2] was 122.2 Å².

With `Cn1c(=S)[nH]c2ccccc21` [1-Methyl-1,3-dihydro-2H-benzimidazole-2-thione] the “collision cross section in nitrogen” value [1] was 130.7 Å², the “collision cross section in nitrogen” value [3] was 130.9 Å² and the “collision cross section in nitrogen” value [5] was 127.9 Å². For the same compound, the “collision cross section in nitrogen” value [2] was 131.4 Å².

For `NCCCN(CCO)CCO` [2,2'-[(3-Aminopropyl)imino]diethanol], the “collision cross section in nitrogen” value [1] was 132.7 Å², the “collision cross section in nitrogen” value [3] was 133.5 Å² and the “collision cross section in nitrogen” value [4] was 135.8 Å².

In the case of `CC12CC1(C)C(=O)N(c1cc(Cl)cc(Cl)c1)C2=O` (centres undefined) [Procymidone], the “collision cross section in nitrogen” value [2] is reported as 157.1 Å².

For `CCCCCCCCCCCCCCCCCC(=O)O` [Octadecanoic acid], the “collision cross section in nitrogen” value [2] was 177.2 Å².

In the case of `O=C(NCc1ncc(C(F)(F)F)cc1Cl)c1c(Cl)cccc1Cl` [Fluopicolide], the “collision cross section in nitrogen” value [3] is reported as 175.4 Å² and the “collision cross section in nitrogen” value [4] is reported as 187 Å².

With `CCCCCc1cc(O)cc(O)c1` [Olivetol] the “collision cross section in nitrogen” value [2] was 148.5 Å².

With `CCC(C)c1cc(C(C)(C)C)cc(-n2nc3ccccc3n2)c1O` (centres undefined) [2-(2H-Benzotriazol-2-yl)-6-(butan-2-yl)-4-tert-butylphenol] the “collision cross section in nitrogen” value [1] was 187.2 Å² and the “collision cross section in nitrogen” value [2] was 192.5 Å².

In the case of `CCCCCCCC/C=C\CCCCCCCC(=O)OCC(O)CO` (centres undefined) [Glyceryl monooleate], the “collision cross section in nitrogen” value [4] is reported as 197.2 Å².

For `Nc1c(Cl)cc([N+](=O)[O-])cc1Cl` [Dichloran], the “collision cross section in nitrogen” value [2] was 131 Å².

For `CCc1cc(Cc2cc(CC)cc(C(C)(C)C)c2O)c(O)c(C(C)(C)C)c1` [2,2'-Methylenebis(ethyl-6-tert-butylphenol)], the “collision cross section in nitrogen” value [2] was 203.6 Å².

In the case of `C=CC(=O)N1CN(C(=O)C=C)CN(C(=O)C=C)C1` [Hexahydro-1,3,5-tris(1-oxoallyl)-1,3,5-triazine], the “collision cross section in nitrogen” value [4] is reported as 160.1 Å².

For `CCCCCCCOC(C)=O` [Heptyl acetate], the “collision cross section in nitrogen” value [2] was 146.8 Å².

In the case of `CO[C@@H]1COCC[C@@H]1N[C@@H]1CC[C@@](C(=O)N2CCc3ncc(C(F)(F)F)cc3C2)(C(C)C)C1` [MK-812], the “collision cross section in nitrogen” value [3] is reported as 214.6 Å², the “collision cross section in nitrogen” value [4] is reported as 219.6 Å² and the “collision cross section in nitrogen” value [2] is reported as 207.8 Å².

With `Oc1c(Br)cc(Br)cc1Br` [2,4,6-Tribromophenol] the “collision cross section in nitrogen” value [2] was 135.2 Å².

With `CCCc1c(OCCCCc2nnn[nH]2)ccc(C(C)=O)c1O` [Tomelukast] the “collision cross section in nitrogen” value [4] was 177.6 Å².

With `CC(C)C1=CC2=CC[C@@H]3[C@](C)(CCC[C@@]3(C)C(=O)O)[C@H]2CC1` [Sodium abietate] the “collision cross section in nitrogen” value [2] was 182 Å².

With `Cc1cc(-c2ccc(N)c(C)c2)ccc1N` [3,3'-Dimethylbenzidine dihydrochloride] the “collision cross section in nitrogen” value [1] was 151.9 Å², the “collision cross section in nitrogen” value [3] was 166.2 Å² and the “collision cross section in nitrogen” value [5] was 150.7 Å².

In the case of `CC1(C)CCC(=Cc2ccc(Cl)cc2)C1(O)Cn1cncn1` (centres undefined) [Triticonazole], the “collision cross section in nitrogen” value [1] is reported as 181.7 Å², the “collision cross section in nitrogen” value [3] is reported as 180.6 Å² and the “collision cross section in nitrogen” value [4] is reported as 189 Å².

With `CCCCCCCCCCCCNC(=N)N` [Dodecylguanidine acetate] the “collision cross section in nitrogen” value [1] was 175.2 Å².
